The results in this text go back to patent US6756210B2, “Linoleic acid diol and glucuronide conjugate levels as diagnostic markers of disorders of abnormal regulation of cytochrome P450 metabolism of unsaturated fatty acids” (The Regents of the University of California, priority 2001, dated 2004).

Experiment [1] concerns the target T1, recombinant mouse sEH (MsEH) (Mus musculus, UniProt P34914).
T1 sequence (P34914 1-554): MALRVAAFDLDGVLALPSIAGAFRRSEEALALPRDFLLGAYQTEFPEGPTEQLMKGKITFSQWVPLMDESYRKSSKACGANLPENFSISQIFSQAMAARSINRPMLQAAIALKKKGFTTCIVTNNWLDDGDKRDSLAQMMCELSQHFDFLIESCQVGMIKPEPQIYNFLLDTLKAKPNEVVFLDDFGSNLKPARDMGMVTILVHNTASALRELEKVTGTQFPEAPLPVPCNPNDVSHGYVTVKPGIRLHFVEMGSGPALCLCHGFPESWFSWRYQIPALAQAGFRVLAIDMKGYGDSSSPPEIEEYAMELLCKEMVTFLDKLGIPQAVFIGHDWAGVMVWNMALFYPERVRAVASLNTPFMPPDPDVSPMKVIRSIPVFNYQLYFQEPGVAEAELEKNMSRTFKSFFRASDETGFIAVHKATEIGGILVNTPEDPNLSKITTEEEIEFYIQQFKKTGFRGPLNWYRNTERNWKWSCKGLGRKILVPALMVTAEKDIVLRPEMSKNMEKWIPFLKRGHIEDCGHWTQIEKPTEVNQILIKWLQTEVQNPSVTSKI
The experiment is described as follows: Inhibition of recombinant mouse sEH (MsEH). The format is biochemical.

The target in the next experiment is T2, Human sEH (HsEH) (Homo sapiens, UniProt P34913).
T2 sequence (P34913 1-555): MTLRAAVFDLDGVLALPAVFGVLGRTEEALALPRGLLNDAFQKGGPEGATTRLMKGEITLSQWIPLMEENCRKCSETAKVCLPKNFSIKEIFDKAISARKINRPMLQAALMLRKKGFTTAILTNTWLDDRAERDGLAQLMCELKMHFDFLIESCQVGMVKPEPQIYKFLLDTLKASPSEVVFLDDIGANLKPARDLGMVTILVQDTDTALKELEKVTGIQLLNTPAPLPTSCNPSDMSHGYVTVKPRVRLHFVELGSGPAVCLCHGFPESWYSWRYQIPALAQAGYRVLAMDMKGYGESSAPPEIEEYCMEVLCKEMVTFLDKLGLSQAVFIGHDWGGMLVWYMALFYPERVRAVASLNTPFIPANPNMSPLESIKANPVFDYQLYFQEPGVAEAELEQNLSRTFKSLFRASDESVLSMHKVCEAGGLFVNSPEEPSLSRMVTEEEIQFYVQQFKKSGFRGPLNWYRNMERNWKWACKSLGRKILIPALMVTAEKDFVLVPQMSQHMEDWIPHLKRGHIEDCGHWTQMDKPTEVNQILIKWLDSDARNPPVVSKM
In words: Inhibition of recombinant human sEH (HsEH). The format is biochemical. The note with it: HsEH 0.26 μM.

Where [2] appears, read: Table 1, MsEH 0.13 μM, read-out: Mouse sEH IC50.
Setting [3] is: Table 2, MsEH 0.13 μM, read-out: Mouse sEH IC50.

The structures appear in SMILES notation. Like-named read-outs stand apart in the source and are kept apart here.

Regarding `CC(C)c1ccc(NC(=O)NC2CCCCC2)cc1` [compound 66], the IC50 (commonly the concentration needed to halve the response being measured) in experiment [1] (setting [2]) was found to be 0.09 ± 0.01 µM.

For the molecule `O=C(Nc1nnn[nH]1)NC1CCCCC1` [compound 533], the IC50 on Human sEH (HsEH) (Table 1) came to 0.1 ± 0.01 µM; in experiment [1] (setting [2]), 0.05 ± 0.1 µM.

In the case of `CCCCCCNC(=O)Nc1ccc(C(C)C)cc1` [compound 287], the IC50 on Human sEH (HsEH) (Table 1) was found to be 0.1 ± 0.01 µM; in experiment [1] (setting [2]), 0.09 ± 0.01 µM.

With `CCCCCCCCNC(=O)Nc1cccc(Cl)c1` [compound 170], the IC50 at Human sEH (HsEH) (Table 1) worked out at 0.18 ± 0.01 µM; in experiment [1] (setting [2]) it was 0.12 ± 0.01 µM.

Consider `CCCCCCNC(=O)Nc1cccc(Cl)c1` [compound 178], for which the IC50 on Human sEH (HsEH) (Table 1) worked out at 0.25 ± 0.01 µM; in experiment [1] (setting [2]), 0.31 ± 0.01 µM.

Consider `O=C(NCCc1ccccc1)NCc1ccccc1` [compound 470], for which the IC50 came out at 7.6 ± 0.1 µM at Human sEH (HsEH) (Table 1) and 0.59 ± 0.08 µM in experiment [1] (setting [2]).

On to `O=C(NCCc1ccc(Cl)cc1)NC1CCCCC1` [compound 361], for which the results for the IC50 (on Human sEH (HsEH) (Table 1); in experiment [1] (setting [2])) were 0.2 ± 0.02 µM and 0.07 ± 0.02 µM, respectively.

For `O=C(NCC1CCCCC1)Nc1ccc2ccccc2c1` [compound 169], the IC50 on Human sEH (HsEH) (Table 1) is 0.13 ± 0.01 µM; in experiment [1] (setting [2]), 0.06 ± 0.01 µM.

Take `Cc1cccc(C)c1NC(=O)NC1CCCCC1` [compound 435]: the IC50 amounted to 0.18 ± 0.01 µM at Human sEH (HsEH) (Table 1) and 0.05 ± 0.01 µM in experiment [1] (setting [2]).

Regarding `CCCCCCCCCCCCNC(=O)NCCCC` [compound 531], the values for the IC50 (on Human sEH (HsEH) (Table 1); in experiment [1] (setting [2])) were 0.64 ± 0.03 µM and 0.14 ± 0.02 µM, respectively.

Take `O=C(NC1CCCCC1)NC1CCCC1` [compound 23]: the IC50 at Human sEH (HsEH) (Table 1) amounted to 1.69 ± 0.05 µM; in experiment [1] (setting [2]) it was 0.1 ± 0.01 µM.

In the case of `O=C(NCCCc1ccccc1)NC12CC3CC(CC(C3)C1)C2` [compound 438], the IC50 at Human sEH (HsEH) (Table 1) is 0.1 ± 0.01 µM; in experiment [1] (setting [2]), 0.05 ± 0.01 µM.

On to `O=C(Nc1ccc(Cl)cc1)Nc1ccc(Cl)c(Cl)c1`, for which the IC50 on Human sEH (HsEH) (Table 1) amounted to 0.12 ± 0.01 µM; in experiment [1], 0.36 ± 0.02 µM.

Take `COc1ccc(NC(=O)NC2CCCCC2)cc1` [compound 67]: the IC50 came out at 0.23 ± 0.01 µM on Human sEH (HsEH) (Table 1) and 0.71 ± 0.04 µM in experiment [1] (setting [2]).

For `O=C(NC1CCCCCCC1)NC1CCCCC1` [compound 58], the IC50 in experiment [1] (setting [2]) was found to be 0.05 ± 0.01 µM.

Regarding `CCCCCCNC(=O)Nc1ccc2ccccc2c1` [compound 143], the IC50 at Human sEH (HsEH) (Table 1) was found to be 0.57 ± 0.01 µM; in experiment [1] (setting [2]), 1 ± 0.1 µM.

With `O=C(CCCCc1ccccc1)NC1CCCCC1` [compound 381], the IC50 worked out at 0.68 ± 0.03 µM at Human sEH (HsEH) (Table 1) and 0.06 ± 0.01 µM in experiment [1] (setting [2]).

With `OC[C@H]1O[C@@H]1c1ccccc1` [R=C6H5, R′=H, X—Y=CH—OH, R, R], the IC50 in experiment [1] (setting [3]) amounted to 1100 ± 23 µM.

For `O=C(NC1CCCCCCCCCCC1)NC1CCCCC1` [compound 119], the IC50 on Human sEH (HsEH) (Table 1) amounted to 0.1 ± 0.01 µM; in experiment [1] (setting [2]), 0.05 ± 0.01 µM.

Turning to `O=C(NC1CCCCC1)OCc1c2ccccc2cc2ccccc12` [compound 263], the IC50 at Human sEH (HsEH) (Table 1) was found to be 0.33 ± 0.06 µM; in experiment [1] (setting [2]), 3 ± 0.3 µM.

As for `O=C(NC1CCCCC1)OC1C2CC3CC(C2)CC1C3` (centres unmarked) [compound 260], the values for the IC50 (on Human sEH (HsEH) (Table 1); in experiment [1] (setting [2])) were 0.1 ± 0.01 µM and 0.06 ± 0.01 µM, respectively.

As to `O=C(NCc1ccncc1)NC1CCCCC1` [compound 188], the values for the IC50 (on Human sEH (HsEH) (Table 1); in experiment [1] (setting [2])) were 2.5 ± 0.03 µM and 0.73 ± 0.08 µM, respectively.

For `O=C(Nc1ccc(OC(F)(F)F)cc1)NC1CCCCC1` [compound 343], the IC50 at Human sEH (HsEH) (Table 1) amounted to 0.1 ± 0.01 µM; in experiment [1] (setting [2]), 0.05 ± 0.01 µM.

For the molecule `CCCCCCCCCNC(=O)NCCC` [compound 429], the IC50 on Human sEH (HsEH) (Table 1) turned out to be 1.7 ± 0.4 µM; in experiment [1] (setting [2]), 0.38 ± 0.04 µM.

Turning to `O=C(O)CCCCCCCCCCCNC(=O)NC1CCCCC1` [compound 425], the IC50 at Human sEH (HsEH) (Table 1) came out at 0.1 ± 0.01 µM; in experiment [1] (setting [2]) it was 0.05 ± 0.01 µM.

With `O=[N+]([O-])c1ccc([C@@H]2O[C@H]2CO)cc1` [R=4-NO2—C6H4, R′=H, X—Y=CH—OH, S, S], the IC50 in experiment [1] (setting [3]) turned out to be 1.6 ± 0.6 µM.

As to `O=C(NCCC1CCCCC1)NC1CCCCC1` [compound 360], the results for the IC50 (on Human sEH (HsEH) (Table 1); in experiment [1] (setting [2])) were 0.1 ± 0.01 µM and 0.05 ± 0.01 µM, respectively.

On to `CN(C)c1ccc(NC(=O)NC2CCCCC2)cc1` [compound 362], for which the IC50 on Human sEH (HsEH) (Table 1) was determined as 1.5 ± 0.1 µM; in experiment [1] (setting [2]), 0.05 ± 0.01 µM.

With `CC(O)C1OC1c1ccc([N+](=O)[O-])cc1` (racemic) [R=4-NO2—C6H4, R′=CH3, X—Y=CH—OH, ±], the IC50 on Human sEH (HsEH) (Table 2) turned out to be 39 ± 1 µM; in experiment [1] (setting [3]), 6.5 ± 0.2 µM.

Take `Nc1ccc(NC(=O)NC2CCCCC2)cc1` [compound 385]: the IC50 at Human sEH (HsEH) (Table 1) was determined as 2.2 ± 0.1 µM; in experiment [1] (setting [2]) it was 0.17 ± 0.02 µM.
